Data: US20250241879A1, “CAPSAICIN SEQUENTIAL DOSING METHOD FOR TREATMENT OF KNEE JOINT PAIN” (priority 2018, published 2025)

Tested on: human patients with bilateral knee osteoarthritis
Test: Procedure pain (NPRS) due to intraarticular trans-capsaicin, shortened cooling protocol, Breg pad vs Elasto-Gel wrap (Example 9)
Format: in vivo
Details: four patients (Example 9), 1 mg intraarticular
Protocol: Human patients experiencing osteoarthritic knee joint pain were subjected to two different protocols for intraarticular administration of trans-capsaicin. Temporary pain expected due to administration of capsaicin was analyzed, along with the intraarticular temperature of the knee joint and the temperature of the patient's skin in the area to be cooled.
(§1) One of the protocols utilized a Breg Knee WrapOn Polar Pad (as illustrated in FIG. 1) that utilizes circulating ice-water to achieve cooling, where the pad is placed on skin surrounding the knee in order to cool the knee joint. The other protocol utilized an Elasto-Gel All Purpose Therapy Wrap measuring 6 inches by 24 inches in size to cool the knee joint. The Elasto-Gel All Purpose Therapy Wrap was removed from a freezer (approximately 0° F.) just prior to use. A temperature probe was placed into the intraarticular space of the patient's knee joint to measure intraarticular temperature of the knee joint. A temperature probe was also placed on the skin in the area to be cooled in order to measure skin temperature in the area to be cooled. […]
as §1, with “by 24 inches, whereby the wrap is placed around the knee joint in order” for “by 24 inches in size”, “joint in order to cool” for “inches in size to cool”, “knee joint. At the discretion of the physician performing the procedure, in order to reduce discomfort for the patient, the protocol authorized the physician to instill a volume of 1-2 cc of 2% w/w lidocaine (without epinephrine) into the skin and subcutaneous tissue of the knee at the site of intra-articular probe insertion. A temperature” for “knee joint. A temperature”
Patients receiving cooling of the knee joint using the Elasto-Gel All Purpose Therapy Wrap were subjected to the following procedure: • Placement of intraarticular temperature probe and skin temperature probe. At the discretion of the physician performing the procedure, in order to reduce discomfort for the patient, the protocol authorized the physician to instill a volume of 1-2 cc of 2% w/w lidocaine (without epinephrine) into the skin and subcutaneous tissue of the knee at the site of intra-articular probe insertion. • Cooling using the designated technique was performed for 30 minutes (+/−2 minutes). • Cooling apparatus was removed from the patient's knee. • Intraarticular injection of lidocaine 2% w/w (without epinephrine) 15 mL solution into the patient's knee joint. • Intraarticular injection of the investigational medicinal product (IMP) was performed to deliver trans-capsaicin in the amount of 1 mg. The trans-capsaicin was injected, using the same needle as the lidocaine 2% w/w (without epinephrine), 3 minutes after the intra-articular injection of lidocaine 2% w/w (without epinephrine). The IMP was provided as a pre-filled syringe containing 2 mL of fluid containing trans-capsaicin at a concentration of 0.5 mg/mL. • Knee joint was flexed and extended five times over 1 minute to ensure appropriate distribution of IMP. • The temperature probe was removed approximately 30 minutes after removal of the cooling apparatus.
Pain due to injection of trans-capsaicin was assessed on a Numerical Pain Rating scale (0-10) for 75 minutes after injection of trans-capsaicin. A verbal NPRS was used to assess procedure pain during the study. […]

SMILES: COc1cc(CNC(=O)CCCCC=CC(C)C)ccc1O [trans-capsaicin, N-[(4-hydroxy-3-methoxyphenyl)methyl]-8-methylnon-6-enamide]
- Knee Pain (NPRS) (Ice-Gel Pack (Elasto-Gel wrap), 30 min): 0.0 (+/−0.0)
- Knee Pain (NPRS) (Ice-Gel Pack (Elasto-Gel wrap), 40 min): 0.0 (+/−0.0)
- Knee Pain (NPRS) (Ice-Gel Pack (Elasto-Gel wrap), 50 min): 1.5 (+/−2.4)
- Knee Pain (NPRS) (Ice-Gel Pack (Elasto-Gel wrap), 60 min): 2.8 (+/−3.1)
- Knee Pain (NPRS) (Ice-Gel Pack (Elasto-Gel wrap), 70 min): 1.0 (+/−0.8)
- Knee Pain (NPRS) (Ice-Gel Pack (Elasto-Gel wrap), 80 min): 1.8 (+/−2.9)
- Knee Pain (NPRS) (Ice-Gel Pack (Elasto-Gel wrap), 90 min): 2.5 (+/−2.9)
- Knee Pain (NPRS) (Ice-Gel Pack (Elasto-Gel wrap), 100 min): 1.8 (+/−2.9)
- Knee Pain (NPRS) (Ice-Gel Pack (Elasto-Gel wrap), 110 min): 0.8 (+/−1.5)
- Knee Pain (NPRS) (Ice-Gel Pack (Elasto-Gel wrap), Baseline): 0.3 (+/−0.5)
- Knee Pain (NPRS) (Standard Cooling Device (Breg pad), 30 min): 0.0 (+/−0.0)
- Knee Pain (NPRS) (Standard Cooling Device (Breg pad), 40 min): 0.5 (+/−1.0)
- Knee Pain (NPRS) (Standard Cooling Device (Breg pad), 50 min): 3.8 (+/−2.9)
- Knee Pain (NPRS) (Standard Cooling Device (Breg pad), 60 min): 1.8 (+/−2.4)
- Knee Pain (NPRS) (Standard Cooling Device (Breg pad), 70 min): 1.0 (+/−2.0)
- Knee Pain (NPRS) (Standard Cooling Device (Breg pad), 80 min): 2.0 (+/−4.0)
- Knee Pain (NPRS) (Standard Cooling Device (Breg pad), 90 min): 1.5 (+/−2.4)
- Knee Pain (NPRS) (Standard Cooling Device (Breg pad), 100 min): 0.5 (+/−1.0)
- Knee Pain (NPRS) (Standard Cooling Device (Breg pad), 110 min): 2.0 (+/−4.0)
- Knee Pain (NPRS) (Standard Cooling Device (Breg pad), Baseline): 0.0 (+/−0.0)
